# Columns and labels:
# [1] = Storage stability of the radioligand by HPLC; type: physicochemical; conditions: 25 days at −20 °C in the dark; initial purity 99%
# rDAT [2] = target: T1, rDAT (Rattus norvegicus, UniProt P23977); conditions: LLC-PK1 cells expressing rDAT
# rDAT [3] = target: T1, rDAT; conditions: pattern previously seen; ref [7]; cited from earlier work
# hDAT [4] = target: T2, hDAT (Homo sapiens, UniProt Q01959); experiment: [3H]-WIN-35,428 binding inhibition in N2A neuroblastoma cells expressing hDAT
# T2 sequence (Q01959 whole entry): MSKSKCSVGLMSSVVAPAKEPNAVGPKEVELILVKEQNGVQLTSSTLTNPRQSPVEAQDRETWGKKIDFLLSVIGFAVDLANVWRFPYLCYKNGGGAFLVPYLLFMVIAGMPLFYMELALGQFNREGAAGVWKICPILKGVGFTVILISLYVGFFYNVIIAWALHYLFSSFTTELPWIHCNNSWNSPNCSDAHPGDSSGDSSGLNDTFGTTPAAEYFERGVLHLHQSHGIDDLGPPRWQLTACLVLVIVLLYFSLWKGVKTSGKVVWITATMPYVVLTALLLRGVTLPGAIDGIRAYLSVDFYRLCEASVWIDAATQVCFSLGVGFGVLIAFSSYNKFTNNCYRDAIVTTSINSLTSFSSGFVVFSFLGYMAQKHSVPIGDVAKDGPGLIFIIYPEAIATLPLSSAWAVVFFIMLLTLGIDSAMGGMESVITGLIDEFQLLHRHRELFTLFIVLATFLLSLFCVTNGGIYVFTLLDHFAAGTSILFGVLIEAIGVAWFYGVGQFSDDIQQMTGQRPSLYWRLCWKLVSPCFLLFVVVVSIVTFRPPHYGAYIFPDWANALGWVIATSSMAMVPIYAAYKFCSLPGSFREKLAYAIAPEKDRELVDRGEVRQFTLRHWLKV
# hDAT [5] = target: T2, hDAT; experiment: [3H]-dopamine uptake inhibition in N2A neuroblastoma cells expressing hDAT; type: cell-based; conditions: uptake IC50 higher than binding Ki
# 6Xhis-hDAT = 6Xhis-hDAT (Homo sapiens, UniProt Q01959); conditions: 100 μM (−)-cocaine; HEK 293 cells expressing 6Xhis-hDAT
# Sequence of 6Xhis-hDAT (Q01959 whole entry): as above
# T1 sequence (P23977 whole entry): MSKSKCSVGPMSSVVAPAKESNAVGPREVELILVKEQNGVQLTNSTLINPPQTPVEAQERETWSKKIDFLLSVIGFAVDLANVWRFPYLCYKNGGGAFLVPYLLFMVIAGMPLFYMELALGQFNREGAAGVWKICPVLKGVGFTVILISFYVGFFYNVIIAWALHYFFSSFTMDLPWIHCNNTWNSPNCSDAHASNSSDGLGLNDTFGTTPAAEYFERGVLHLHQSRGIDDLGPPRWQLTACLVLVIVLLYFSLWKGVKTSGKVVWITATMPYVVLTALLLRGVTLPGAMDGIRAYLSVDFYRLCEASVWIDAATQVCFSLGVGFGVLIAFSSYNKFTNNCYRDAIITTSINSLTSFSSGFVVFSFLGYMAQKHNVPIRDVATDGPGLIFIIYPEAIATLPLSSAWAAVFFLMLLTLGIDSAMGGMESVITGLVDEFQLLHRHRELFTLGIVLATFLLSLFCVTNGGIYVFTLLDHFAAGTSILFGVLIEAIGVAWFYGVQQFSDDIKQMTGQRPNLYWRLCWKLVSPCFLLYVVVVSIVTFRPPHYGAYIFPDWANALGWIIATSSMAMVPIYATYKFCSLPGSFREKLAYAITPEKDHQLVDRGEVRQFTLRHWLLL
smiles,measurement,setting,value
"CCCC(C(=O)c1ccc(N=[N+]=[N-])c([125I])c1)N1CCCC1 (stereo not drawn) [[^125I]-6, [^125I]-1-(4-Azido-3-iodophenyl)-2-pyrrolidin-1-yl-pentan-1-one]",Radiochemical purity after storage (stability),[1],92%
same,Incorporation into DAT on photoactivation (labeled protein of ~80 kDa),"rDAT [2]; 30 nM radioligand, 1 h, 4°C, UV 254 nm, 45 s",incorporation
CN1[C@@H]2CC[C@H]1C[C@@H](OC(c1ccccc1)c1ccccc1)C2 [benztropine],Binding versus uptake inhibition value (pattern),rDAT [3],essentially the same value
C[C@@H]1CN(CCCn2c3ccccc3c3ccccc32)C[C@H](C)N1 [rimcazole],Binding versus uptake inhibition value (pattern),rDAT [3],essentially the same value
"CCCC(C(=O)c1ccc(N=[N+]=[N-])c(I)c1)N1CCCC1 (stereo not drawn) [Compound 6, 1-(4-Azido-3-iodophenyl)-2-pyrrolidin-1-yl-pentan-1-one]","DAT affinity, fold higher than bupropion",hDAT [4]; ratio of Ki values versus bupropion,6 fold
same,"DAT affinity, fold less than pyrovalerone",hDAT [4]; ratio of Ki values versus pyrovalerone,10 fold
"CCCC(C(=O)c1ccc(N)cc1)N1CCCC1 (stereo not drawn) [Compound 8, 1-(4-Aminophenyl)-2-pyrrolidin-1-yl-pentan-1-one]",Uptake inhibition IC50 relative to binding Ki,hDAT [5],essentially the same value
"COC(=O)[C@H]1[C@@H](OC(=O)c2ccccc2)C[C@@H]2CC[C@H]1N2C [cocaine, reference compound]",Effect on [125I]-6 photolabeling of DAT,rDAT [2]; 100 μM (−)-cocaine,blocked
same,Effect on [125I]-6 photolabeling of DAT,6Xhis-hDAT,blocked

# — publication PMC2696686 (Bioorganic & medicinal chemistry, 2009)
